In ChEMBL document CHEMBL5523716, “Discovery of novel EGFR-PROTACs capable of degradation of multiple EGFR-mutated proteins” (Eur J Med Chem, 2024):

Columns and labels:
[1] = Antiproliferative activity against human H1975-TM cells harboring EGFR L858R/T790M/C797S mutant assessed as inhibition of cell growth incubated for 48 to 72 hrs by CCK-8 assay; format: functional, cell-based
HCC827 [2] = assay: Antiproliferative activity against human HCC827 cells harboring EGFR Del19 mutant assessed as inhibition of cell growth incubated for 48 to 72 hrs by CCK-8 assay; format: functional, cell-based
A549 = assay: Antiproliferative activity against human A549 cells harboring EGFR wild type assessed as inhibition of cell growth incubated for 48 to 72 hrs by CCK-8 assay; format: functional, cell-based
NCI-H1975 [3] = assay: Antiproliferative activity against human NCI-H1975 cells harboring EGFR L858R/T790M double mutant assessed as inhibition of cell growth incubated for 48 to 72 hrs by CCK-8 assay; format: functional, cell-based
A-431 = assay: Antiproliferative activity against human A-431 cells harboring EGFR wild type assessed as inhibition of cell growth incubated for 48 to 72 hrs by CCK-8 assay; format: functional, cell-based
HCC827 [4] = assay: Antitumor activity against human HCC827 cells xenografted in BALB/c mouse assessed as tumor growth inhibition at 5 mg/kg,ip once daily for 28 days relative to control; format: functional; conditions: HCC827, 672 h, time 28 day, read-out: TGI
NCI-H1975 [5] = assay: Antitumor activity against human NCI-H1975 cells xenografted in BALB/c mouse assessed as tumor growth inhibition at 10 mg/kg,ip once daily for 22 days relative to control; format: functional; conditions: NCI-H1975, 528 h, time 22 day, read-out: TGI
[6] = Antitumor activity against human H1975-TM cells xenografted in BALB/c mouse assessed as tumor growth inhibition at 10 mg/kg,ip once daily for 14 days relative to control; format: functional; conditions: 336 h, time 14 day, read-out: TGI

| Compound | IC50 [1] [µM] | IC50 (HCC827 [2]) [µM] | IC50 (A549) [µM] | IC50 (NCI-H1975 [3]) [µM] | IC50 (A-431) [µM] | inhibition in vivo at 5 mg/kg (HCC827 [4]) [%] | inhibition in vivo at 10 mg/kg (NCI-H1975 [5]) [%] | inhibition in vivo at 10 mg/kg [6] [%] |
| --- | --- | --- | --- | --- | --- | --- | --- | --- |
| Cc1ncsc1-c1ccc(CNC(=O)[C@@H]2C[C@@H](O)CN2C(=O)[C@@H](NC(=O)CCCCCCCn2cc(CCCCCOc3cc4ncnc(Nc5ccc(F)c(Cl)c5)c4cc3NC(=O)/C=C/CN3CCCCC3)nn2)C(C)(C)C)cc1 | > 20 | 0.053 | > 20 | 5.82 | > 20 | – | – | – |
| Cc1ncsc1-c1ccc(CNC(=O)[C@@H]2C[C@@H](O)CN2C(=O)[C@@H](NC(=O)COCCn2cc(CCCCCOc3cc4ncnc(Nc5ccc(F)c(Cl)c5)c4cc3NC(=O)/C=C/CN3CCCCC3)nn2)C(C)(C)C)cc1 | > 20 | 0.169 | > 20 | 14.3 | > 20 | – | – | – |
| Cc1ncsc1-c1ccc(CNC(=O)[C@@H]2C[C@@H](O)CN2C(=O)[C@@H](NC(=O)CCCCCCCCCCn2cc(CCCCCOc3cc4ncnc(Nc5ccc(F)c(Cl)c5)c4cc3NC(=O)/C=C/CN3CCCCC3)nn2)C(C)(C)C)cc1 | > 20 | 0.027 | > 20 | > 20 | > 20 | – | – | – |
| COc1cc2ncnc(Nc3ccc(F)c(Cl)c3)c2cc1NC(=O)/C=C/CN1CCCCC1 [DACOMITINIB ANHYDROUS] | 7.01 | 0.007 | 0.49 | 0.7 | 1.96 | 90 | 67 | – |
| CCN(CC)C/C=C/C(=O)Nc1cc2c(Nc3ccc(F)c(Cl)c3)ncnc2cc1OCc1cn(CCCCCCCCCCC(=O)N[C@H](C(=O)N2C[C@H](O)C[C@H]2C(=O)N[C@H](C)c2ccc(-c3scnc3C)cc2)C(C)(C)C)nn1 | > 20 | 0.01 | > 20 | 0.69 | > 20 | – | – | – |
| CCN(CC)C/C=C/C(=O)Nc1cc2c(Nc3ccc(F)c(Cl)c3)ncnc2cc1OCCCCCc1cn(CCCCCCCC(=O)N[C@H](C(=O)N2C[C@H](O)C[C@H]2C(=O)N[C@H](C)c2ccc(-c3scnc3C)cc2)C(C)(C)C)nn1 | > 20 | 0.03 | > 20 | 0.96 | > 20 | – | – | – |
| Cc1ncsc1-c1ccc(CNC(=O)[C@@H]2C[C@@H](O)CN2C(=O)[C@@H](NC(=O)CCCCn2cc(COCCOCCOCCOc3cc4ncnc(Nc5ccc(F)c(Cl)c5)c4cc3NC(=O)/C=C/CN3CCCCC3)nn2)C(C)(C)C)cc1 | > 20 | 0.05 | > 20 | 4.96 | > 20 | – | – | – |
| CCN(CC)C/C=C/C(=O)Nc1cc2c(Nc3ccc(F)c(Cl)c3)ncnc2cc1OCCCCCc1cn(CCCCCCCCCCC(=O)N[C@H](C(=O)N2C[C@H](O)C[C@H]2C(=O)NCc2ccc(-c3scnc3C)cc2)C(C)(C)C)nn1 | > 20 | 0.01 | > 20 | 3.08 | > 20 | – | – | – |
| CCN(CC)C/C=C/C(=O)Nc1cc2c(Nc3ccc(F)c(Cl)c3)ncnc2cc1OCCCCCc1cn(CCCCCCCC(=O)N[C@H](C(=O)N2C[C@H](O)C[C@H]2C(=O)NCc2ccc(-c3scnc3C)cc2)C(C)(C)C)nn1 | > 20 | 0.031 | > 20 | 1.37 | > 20 | – | – | – |
| Cc1ncsc1-c1ccc(CNC(=O)[C@@H]2C[C@@H](O)CN2C(=O)[C@@H](NC(=O)CCCCn2cc(CCCCCOc3cc4ncnc(Nc5ccc(F)c(Cl)c5)c4cc3NC(=O)/C=C/CN3CCCCC3)nn2)C(C)(C)C)cc1 | > 20 | 0.046 | > 20 | 14.7 | > 20 | – | – | – |
| CCN(CC)C/C=C/C(=O)Nc1cc2c(Nc3ccc(F)c(Cl)c3)ncnc2cc1OCCCCCc1cn(CCOCCOCC(=O)N[C@H](C(=O)N2C[C@H](O)C[C@H]2C(=O)NCc2ccc(-c3scnc3C)cc2)C(C)(C)C)nn1 | > 20 | 0.084 | > 20 | 2.85 | > 20 | – | – | – |
| CCN(CC)C/C=C/C(=O)Nc1cc2c(Nc3ccc(F)c(Cl)c3)ncnc2cc1OCc1cn(CCCCC(=O)N[C@H](C(=O)N2C[C@H](O)C[C@H]2C(=O)N[C@H](C)c2ccc(-c3scnc3C)cc2)C(C)(C)C)nn1 | > 20 | 0.039 | > 20 | 7.46 | > 20 | – | – | – |
| CCN(CC)C/C=C/C(=O)Nc1cc2c(Nc3ccc(F)c(Cl)c3)ncnc2cc1OCCCCCc1cn(CCCCCCCCCCC(=O)N[C@H](C(=O)N2C[C@H](O)C[C@H]2C(=O)N[C@H](C)c2ccc(-c3scnc3C)cc2)C(C)(C)C)nn1 | > 20 | 0.01 | > 20 | 5.37 | > 20 | – | – | – |
| Cc1ncsc1-c1ccc(CNC(=O)[C@@H]2C[C@@H](O)CN2C(=O)[C@@H](NC(=O)COCCOCCn2cc(CCCCCOc3cc4ncnc(Nc5ccc(F)c(Cl)c5)c4cc3NC(=O)/C=C/CN3CCCCC3)nn2)C(C)(C)C)cc1 | > 20 | 0.004 | > 20 | 1.93 | > 20 | – | – | – |
| Cc1ncsc1-c1ccc(CNC(=O)[C@@H]2C[C@@H](O)CN2C(=O)[C@@H](NC(=O)COCCOCCOCCn2cc(CCCCCOc3cc4ncnc(Nc5ccc(F)c(Cl)c5)c4cc3NC(=O)/C=C/CN3CCCCC3)nn2)C(C)(C)C)cc1 | > 20 | 0.089 | > 20 | 2.28 | > 20 | – | – | – |
| CCN(CC)C/C=C/C(=O)Nc1cc2c(Nc3ccc(F)c(Cl)c3)ncnc2cc1OCCCCCc1cn(CCCCC(=O)N[C@H](C(=O)N2C[C@H](O)C[C@H]2C(=O)N[C@H](C)c2ccc(-c3scnc3C)cc2)C(C)(C)C)nn1 | > 20 | 0.054 | > 20 | 1.86 | > 20 | – | – | – |
| Cc1ncsc1-c1ccc(CNC(=O)[C@@H]2C[C@@H](O)CN2C(=O)[C@@H](NC(=O)CCCCCCCCCCn2cc(COc3cc4ncnc(Nc5ccc(F)c(Cl)c5)c4cc3NC(=O)/C=C/CN3CCN(C)CC3)nn2)C(C)(C)C)cc1 | > 20 | 0.038 | > 20 | 14.2 | > 20 | – | – | – |
| C=CC(=O)Nc1cc(Nc2nccc(-c3cn(C)c4ccccc34)n2)c(OC)cc1N(C)CCN(C)C [OSIMERTINIB] | 6.7 | 0.006 | 1.23 | […] | […] | – | – | 27 |
| Cc1ncsc1-c1ccc(CNC(=O)[C@@H]2C[C@@H](O)CN2C(=O)[C@@H](NC(=O)CCCCCCCCCCn2cc(COc3cc4ncnc(Nc5ccc(F)c(Cl)c5)c4cc3NC(=O)/C=C/CN3CCOCC3)nn2)C(C)(C)C)cc1 | > 20 | 0.019 | > 20 | > 20 | > 20 | – | – | – |
| Cc1ncsc1-c1ccc(CNC(=O)[C@@H]2C[C@@H](O)CN2C(=O)[C@@H](NC(=O)CCCCCCCCCCn2cc(COc3cc4ncnc(Nc5ccc(F)c(Cl)c5)c4cc3NC(=O)/C=C/CN3CCCCC3)nn2)C(C)(C)C)cc1 | > 20 | 0.006 | > 20 | > 20 | > 20 | – | – | – |
| Cc1ncsc1-c1ccc(CNC(=O)[C@@H]2C[C@@H](O)CN2C(=O)[C@@H](NC(=O)CCCCCCCn2cc(COCCOCCOCCOc3cc4ncnc(Nc5ccc(F)c(Cl)c5)c4cc3NC(=O)/C=C/CN3CCCCC3)nn2)C(C)(C)C)cc1 | > 20 | 0.043 | > 20 | 2.55 | 11.4 | – | – | – |
| Cc1ncsc1-c1ccc(CNC(=O)[C@@H]2C[C@@H](O)CN2C(=O)[C@@H](NC(=O)CCCCCCCCCCn2cc(COc3cc4ncnc(Nc5ccc(F)c(Cl)c5)c4cc3NC(=O)/C=C/CN(C)C)nn2)C(C)(C)C)cc1 | > 20 | 0.011 | > 20 | 1.48 | > 20 | – | – | – |
| CCN(CC)C/C=C/C(=O)Nc1cc2c(Nc3ccc(F)c(Cl)c3)ncnc2cc1OCCCCCc1cn(CCCCC(=O)N[C@H](C(=O)N2C[C@H](O)C[C@H]2C(=O)NCc2ccc(-c3scnc3C)cc2)C(C)(C)C)nn1 | > 20 | 0.059 | > 20 | 3.5 | > 20 | – | – | – |
| Cc1ncsc1-c1ccc(CNC(=O)[C@@H]2C[C@@H](O)CN2C(=O)[C@@H](NC(=O)CCCCCCCCCCn2cc(COCCOCCOCCOc3cc4ncnc(Nc5ccc(F)c(Cl)c5)c4cc3NC(=O)/C=C/CN3CCCCC3)nn2)C(C)(C)C)cc1 | > 20 | 0.015 | > 20 | 2.36 | 11.5 | – | – | – |
| Cc1ncsc1-c1ccc(CNC(=O)[C@@H]2C[C@@H](O)CN2C(=O)[C@@H](NC(=O)CCCCCCCCCn2cc(CCCCCOc3cc4ncnc(Nc5ccc(F)c(Cl)c5)c4cc3NC(=O)/C=C/CN3CCCCC3)nn2)C(C)(C)C)cc1 | > 20 | 0.018 | 9.3 | 9.44 | > 20 | – | – | – |
